Structures are written as SMILES.
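Further: spheroids exposed to drugs for seven days before readout.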

The test system of the first assay is 843126-344-R-J1-PDC complex spheroid viability. In words: Anticancer human tumor 843126-344-R-J1-PDC patient-derived melanoma cell line growth inhibition [POLQ]. The settings on record: second compound 0.1 µM; first compound 1 µM; active compounds read low. Put shortly: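 Patient-derived tumour cells were co-cultured with HUVEC and mesenchymal stem cells as multicellular spheroids at 37 °C. They were treated with POLQ inhibitors (novobiocin, ART-558, RP6685) alone or combined with other agents. Top concentrations were at or near clinical Cmax (otherwise 10 microM; SN-38 at 1 microM), decreasing in half-log steps.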
In general, viability, T/C refers to the ratio of treated to control. As for `COc1cccc2c1C(=O)c1c(O)c3c(c(O)c1C2=O)CC(O)(C(=O)CO)CC3OC1CC(N)C(O)C(C)O1` (stereo unspecified) + Cc1cccc(N(C)C(=O)C2C(O)CCN2c2nc(C)cc(C(F)(F)F)c2C#N)c1, the viability, T/C was 9.74%.

The assay is the same for the next values; noted with them: second compound 0.1 µM; first compound 3.16 µM; active compounds read low.
Turning to `CC1COCCN1c1cc(C2(O)CC3CCC(C2)O3)c2cnn(-c3ccn[nH]3)c2n1` (stereo unspecified) + COC1C(OC(N)=O)C(O)C(Oc2ccc3c(O)c(NC(=O)c4ccc(O)c(CC=C(C)C)c4)c(=O)oc3c2C)OC1(C)C, the viability, T/C is 27.2%.
Same read-out and setting: as for `O=C(Nc1ccc(O)c(NS(=O)(=O)c2ccc(F)cc2)c1)c1ccc(-c2ccccc2)cc1` + COC1C(OC(N)=O)C(O)C(Oc2ccc3c(O)c(NC(=O)c4ccc(O)c(CC=C(C)C)c4)c(=O)oc3c2C)OC1(C)C, the figure is 87.9%; as for `COc1cc(C2c3cc4c(cc3C(OC3OC5COC(C)OC5C(O)C3O)C3COC(=O)C23)OCO4)cc(OC)c1O` (stereo unspecified) + Cc1cccc(N(C)C(=O)C2C(O)CCN2c2nc(C)cc(C(F)(F)F)c2C#N)c1, 72.8%; as for `COc1cccc2c1C(=O)c1c(O)c3c(c(O)c1C2=O)CC(O)(C(=O)CO)CC3OC1CC(N)C(O)C(C)O1` (stereo unspecified) + Cc1cccc(N(C)C(=O)C2C(O)CCN2c2nc(C)cc(C(F)(F)F)c2C#N)c1, 4.9%.

The same assay, now with this note: second compound 0.1 µM; first compound 10 µM; active compounds read low.
For `CC1COCCN1c1cc(C2(O)CC3CCC(C2)O3)c2cnn(-c3ccn[nH]3)c2n1` (stereo unspecified) + COC1C(OC(N)=O)C(O)C(Oc2ccc3c(O)c(NC(=O)c4ccc(O)c(CC=C(C)C)c4)c(=O)oc3c2C)OC1(C)C, the viability, T/C is 18.3%.
On the same count and under the same terms, as for `O=C(Nc1ccc(O)c(NS(=O)(=O)c2ccc(F)cc2)c1)c1ccc(-c2ccccc2)cc1` + COC1C(OC(N)=O)C(O)C(Oc2ccc3c(O)c(NC(=O)c4ccc(O)c(CC=C(C)C)c4)c(=O)oc3c2C)OC1(C)C, the figure is 61.9%; as for `COc1cc(C2c3cc4c(cc3C(OC3OC5COC(C)OC5C(O)C3O)C3COC(=O)C23)OCO4)cc(OC)c1O` (stereo unspecified) + Cc1cccc(N(C)C(=O)C2C(O)CCN2c2nc(C)cc(C(F)(F)F)c2C#N)c1, 45.5%.
The same measure, in the same setting: in the case of `COc1cccc2c1C(=O)c1c(O)c3c(c(O)c1C2=O)CC(O)(C(=O)CO)CC3OC1CC(N)C(O)C(C)O1` (stereo unspecified) + Cc1cccc(N(C)C(=O)C2C(O)CCN2c2nc(C)cc(C(F)(F)F)c2C#N)c1 it was 3.68%.

Staying with this assay, now noted: second compound 0.316 µM; first compound 0.0316 µM; active compounds read low.
As for `CC1COCCN1c1cc(C2(O)CC3CCC(C2)O3)c2cnn(-c3ccn[nH]3)c2n1` (stereo unspecified) + COC1C(OC(N)=O)C(O)C(Oc2ccc3c(O)c(NC(=O)c4ccc(O)c(CC=C(C)C)c4)c(=O)oc3c2C)OC1(C)C, the viability, T/C was 92.1%.
Same read-out and setting: in the case of `O=C(Nc1ccc(O)c(NS(=O)(=O)c2ccc(F)cc2)c1)c1ccc(-c2ccccc2)cc1` + COC1C(OC(N)=O)C(O)C(Oc2ccc3c(O)c(NC(=O)c4ccc(O)c(CC=C(C)C)c4)c(=O)oc3c2C)OC1(C)C it was 92.8%; in that of `COc1cc(C2c3cc4c(cc3C(OC3OC5COC(C)OC5C(O)C3O)C3COC(=O)C23)OCO4)cc(OC)c1O` (stereo unspecified) + Cc1cccc(N(C)C(=O)C2C(O)CCN2c2nc(C)cc(C(F)(F)F)c2C#N)c1, 82.1%.
The same measure, in the same setting: in the case of `COc1cccc2c1C(=O)c1c(O)c3c(c(O)c1C2=O)CC(O)(C(=O)CO)CC3OC1CC(N)C(O)C(C)O1` (stereo unspecified) + Cc1cccc(N(C)C(=O)C2C(O)CCN2c2nc(C)cc(C(F)(F)F)c2C#N)c1 it was 92.7%.

Staying with this assay, now noted: second compound 0.316 µM; first compound 0.1 µM; active compounds read low.
`CC1COCCN1c1cc(C2(O)CC3CCC(C2)O3)c2cnn(-c3ccn[nH]3)c2n1` (stereo unspecified) + COC1C(OC(N)=O)C(O)C(Oc2ccc3c(O)c(NC(=O)c4ccc(O)c(CC=C(C)C)c4)c(=O)oc3c2C)OC1(C)C: the viability, T/C is 64.9%.
Still for that read-out and setting: as for `O=C(Nc1ccc(O)c(NS(=O)(=O)c2ccc(F)cc2)c1)c1ccc(-c2ccccc2)cc1` + COC1C(OC(N)=O)C(O)C(Oc2ccc3c(O)c(NC(=O)c4ccc(O)c(CC=C(C)C)c4)c(=O)oc3c2C)OC1(C)C, the figure is 98.3%.
Take `COc1cc(C2c3cc4c(cc3C(OC3OC5COC(C)OC5C(O)C3O)C3COC(=O)C23)OCO4)cc(OC)c1O` (stereo unspecified) + Cc1cccc(N(C)C(=O)C2C(O)CCN2c2nc(C)cc(C(F)(F)F)c2C#N)c1: the viability, T/C is 84.1%.
Still for that read-out and setting: in the case of `COc1cccc2c1C(=O)c1c(O)c3c(c(O)c1C2=O)CC(O)(C(=O)CO)CC3OC1CC(N)C(O)C(C)O1` (stereo unspecified) + Cc1cccc(N(C)C(=O)C2C(O)CCN2c2nc(C)cc(C(F)(F)F)c2C#N)c1 it was 60.7%.

Still in this assay, the particulars now being: second compound 0.316 µM; first compound 0.316 µM; active compounds read low.
As for `CC1COCCN1c1cc(C2(O)CC3CCC(C2)O3)c2cnn(-c3ccn[nH]3)c2n1` (stereo unspecified) + COC1C(OC(N)=O)C(O)C(Oc2ccc3c(O)c(NC(=O)c4ccc(O)c(CC=C(C)C)c4)c(=O)oc3c2C)OC1(C)C, the viability, T/C was 51.5%.
Turning to `O=C(Nc1ccc(O)c(NS(=O)(=O)c2ccc(F)cc2)c1)c1ccc(-c2ccccc2)cc1` + COC1C(OC(N)=O)C(O)C(Oc2ccc3c(O)c(NC(=O)c4ccc(O)c(CC=C(C)C)c4)c(=O)oc3c2C)OC1(C)C, the viability, T/C was 113%.
As for `COc1cc(C2c3cc4c(cc3C(OC3OC5COC(C)OC5C(O)C3O)C3COC(=O)C23)OCO4)cc(OC)c1O` (stereo unspecified) + Cc1cccc(N(C)C(=O)C2C(O)CCN2c2nc(C)cc(C(F)(F)F)c2C#N)c1, the viability, T/C was 92.7%.
On the same count and under the same terms, as for `COc1cccc2c1C(=O)c1c(O)c3c(c(O)c1C2=O)CC(O)(C(=O)CO)CC3OC1CC(N)C(O)C(C)O1` (stereo unspecified) + Cc1cccc(N(C)C(=O)C2C(O)CCN2c2nc(C)cc(C(F)(F)F)c2C#N)c1, the figure is 38.6%.

The values are drawn from PubChem BioAssay AID1963837 (Molecular Pharmacology Branch, DTP, NCI, 2024).
